The test system of data set [1] is p53 dimer (L344A) mutant. Put plainly: Recruitment (enrichment index) of p53 dimer into designed peptide droplets. Also on record: species or system human. As to conditions: (GGGS)3-linker versus GSGS-linker droplets; no salt, pH 7.0. An excerpt: (§1) We prepared p53 tetramer, dimer, and monomer mutants, as described previously[8],[37],[50]. For the p53 tetramer, a thermostable and cysteine-modified human p53 mutant (C124A, C135V, C141V, W146Y, C182S, V203A, R209P, C229Y, H233Y, Y234F, N235K, Y236F, T253V, N268D, C275A, C277A, and K292C) was used[50]. The dimer and monomer mutants of p53 corresponded to L344A and L344P of the tetramer sequence, respectively[8],[37]. These p53 mutants were expressed with a glutathione S-transferase (GST) tag in E. coli and purified after cleavage of the GST tag, as described previously[50],[51]. The oligomeric state of p53 mutants was confirmed using a gel filtration column (Superdex 200; GE Healthcare). p53 mutants were labeled with Atto488 (ATTO-TEC) or Alexa488 (Thermo Fisher) using maleimide chemistry and then purified using a heparin column (GE Healthcare). We prepared Alexa488-labeled FUS-MBP as described previously[37],[39].
Recruitment evaluations were performed following the method described in our previous studies[37],[41]. […] Using the ImageJ software, we calculated the EI values of the individual droplets as follows:2 EI=Idroplet/Isolution, where Idroplet and Isolution represent the average fluorescence intensities of the individual droplets and solutions near the droplets with background substitution, respectively.

Data set [2] deals with p53 monomer (L344P) mutant. The data set can be described thus: Recruitment (enrichment index) of p53 monomer into designed peptide droplets. Also on record: species or system human.
Source text: as §1
(§2) Recruitment evaluations were performed following the method described in our previous studies[37],[41]. Solutions containing 0.9–1.8 mM designed peptides, 0.1 µM Alexa488-labeled p53 mutants or Alexa488, 25 mM HEPES, 0.5 mM EDTA, and 1 mM DTT at pH 7.0 were used. The solutions were then incubated at 22 °C for five minutes. The aforementioned microscope was used with HILO illumination. To prevent photo-bleaching of the fluorescent samples, we used a laser power of 0.15 mW. The images were acquired at 22 °C. Using the ImageJ software, we calculated the EI values of the individual droplets as follows:2 EI=Idroplet/Isolution, where Idroplet and Isolution represent the average fluorescence intensities of the individual droplets and solutions near the droplets with background substitution, respectively.

The test system of data set [3] is p53 tetramer. Put plainly: Recruitment (enrichment index) of p53 tetramer into designed peptide droplets. As to conditions: no salt, pH 7.0. Also on record: species or system human.
Source text: as §1, §2

Data set [4] in a line: Phase separation of designed peptides by DIC and fluorescence microscopy. Format: physicochemical. As to conditions: DIC microscopy; 0.9–1.8 mM peptide, 25 mM HEPES, 0.5 mM EDTA, pH 7.0, no salt, MPC polymer-coated coverslip, 20 or 22 °C. The procedure: Differential interference contrast (DIC) microscopy confirmed that these peptides (0.9–1.8 mM) underwent phase separation in 25 mM HEPES and 0.5 mM EDTA at pH 7.0 (Fig. 2B). To prevent the melting of clusters on the coverslip surface, 2-methacryloyloxyethyl phosphorylcholine (MPC) polymer coating was used[36],[37] (Supplementary Fig. S1). Samples were prepared by sonicating a 2 mM peptide solution or diluting the peptide solution from a 10 mM peptide stock after storage under freezing conditions. Four of the designed peptides, except DPp53N-GSGS-DPp53C2, formed μm-sized spherical clusters. Fluorescence microscopy confirmed the high concentration of peptides labeled with the fluorescent dye Alexa488 in the clusters (Fig. 2B). […] Cross-β structure was also supported by the observation of intrinsic fluorescence upon 400–440 nm excitation[40] (Supplementary Fig. S2). […]
(§3) The DIC and fluorescence modes of an inverted microscope (IX-73; Olympus, Tokyo, Japan) equipped with microscopic objectives (60 × and 10 ×) and a camera (DP74) were used, as described previously. […] DIC and fluorescence images were obtained at 20 or 22 °C. For intrinsic fluorescence measurements, the excitation and detection wavelengths were 440–440 nm and larger than 460 nm, respectively.

Data set [5] can be described thus: Cross-β structure detection with amyloid-sensitive probe Picogreen. Format: physicochemical. As to conditions: Picogreen 25 µM, 25 mM HEPES, 0.5 mM EDTA, pH 7.0. The procedure: Differential interference contrast (DIC) microscopy confirmed that these peptides (0.9–1.8 mM) underwent phase separation in 25 mM HEPES and 0.5 mM EDTA at pH 7.0 (Fig. 2B). To prevent the melting of clusters on the coverslip surface, 2-methacryloyloxyethyl phosphorylcholine (MPC) polymer coating was used[36],[37] (Supplementary Fig. S1). Samples were prepared by sonicating a 2 mM peptide solution or diluting the peptide solution from a 10 mM peptide stock after storage under freezing conditions. Four of the designed peptides, except DPp53N-GSGS-DPp53C2, formed μm-sized spherical clusters. Fluorescence microscopy confirmed the high concentration of peptides labeled with the fluorescent dye Alexa488 in the clusters (Fig. 2B). […] Cross-β structure was also supported by the observation of intrinsic fluorescence upon 400–440 nm excitation[40] (Supplementary Fig. S2). Clusters of aromatic W residues in DPp53N-GSGS-DPp53C2 may lead to the formation of solid aggregates, which is consistent with the results of different systems[21],[34].
as §3, with “previously. We used the solution containing 0.9–1.8 mM designed peptide, 0.1 μM Alexa488-labeled peptide, 25 mM HEPES, and 0.5 mM EDTA at pH 7.0. To detect the cross-β structure, picogreen was added at 25 µM for DPp53N-GSGS-DPp53C2 or 2.5 µM for others instead of the Alexa488-labeled peptide.” for “previously.”
Fig. S8 Time course of cross-β structure formation of designed peptides in droplets monitored by DIC and fluorescence images. The fluorescence was detected corresponding to the amyloid marker Picogreen at 2.5 µM in a solution containing 0.9 mM designed peptides, 25 mM HEPES, and 0.5 mM EDTA at pH 7.0 and 22 °C.

Data set [6] in a line: Salt and 1,6-hexanediol dependence of droplet/aggregate formation (scattering at 350 nm, DIC). The class given is physicochemical. As to conditions: 1 mM peptide, 25 mM HEPES, 0.5 mM EDTA, pH 7.0, 22 °C; scattering at 350 nm and DIC. The procedure: We detected light scattering corresponding to the designed peptide droplets by measuring OD350 values using an absorbance spectrometer (NanoDrop One; Thermo Fisher).
(A, B) Effect of additives, 1,6-hexandiol (1,6-HD) and NaCl, on aggregate formation of DPp53N-GSGS-DPp53C2 was monitored as the scattering intensity observed at 350 nm (A) and via DIC images (B). The measurements were conducted in a solution containing 25 mM HEPES, 0.5 mM EDTA, and 1 mM DPp53N-GSGS-DPp53C2 in the presence or absence of additives at pH 7.0 and 22 °C.
Fig. S7 Designed peptide droplets are sensitive to salt concentration but not to 1,6-hexandiol. (A, B) Salt-concentration dependence of droplet formation of designed peptides monitored as the scattering intensity at 350 nm (A) and via DIC images (B). (C, D) Effect of 1,6-hexandiol on droplet formation of designed peptides monitored as the scattering intensity at 350 nm (C) and via DIC images (D). The measurements were performed in a solution containing 1 mM designed peptides, 25 mM HEPES, and 0.5 mM EDTA at pH 7.0 and 22 °C. In panels (A) and (C), the errors denote the standard errors of at least three measurements.

Data set [7] has as its target 5-FAM-labeled DP_(p53N). Put plainly: fluorescence polarisation; fluorescence anisotropy; non-labeled peptide titrated into 40 nM 5-FAM-labeled DP_(p53N); 25 mM HEPES, 0.5 mM EDTA, 2 mg/mL BSA, 2 mM Trolox, pH 7.0, 25 °C; one-to-one binding model. In general terms: Polarisation of emitted light reports the rotation of a fluorescent probe.

This is an account of results in article PMC10079954, “Rational design of phase separating peptides based on phase separating protein sequence of p53” (Scientific Reports, 2023).

On to “RRRVVQRRRRGGGSGGGSGGGSDDDDDDD [DPp53N-(GGGS)3-D7]”, for which the “Increase of average EI of p53 dimer mutant compared to the GSGS-linker peptide” value in data set [1] is recorded as 3.3 fold. For the same molecule, the “Decrease of average EI of p53 monomer mutant compared to the GSGS-linker peptide” value in data set [2] ((GGGS)3-linker versus GSGS-linker droplets, no salt, pH 7.0) is recorded as 1.8 fold. The “Increase of average EI of p53 tetramer compared to the GSGS-linker peptide” value in data set [3] ((GGGS)3-linker versus GSGS-linker droplets) is 3.1 fold.

For the molecule “RRRVVQRRRRGSGSEDDDWWMWWD [DPp53N-GSGS-DPp53C2]”, the “Cluster morphology (phase separation)” value in data set [4] is listed as “non-spherical clusters that corresponded to solid aggregates”. Further, the “Picogreen fluorescence of clusters” value in data set [5] was “high intensity”. Also, in data set [6], the “Aggregate formation at high concentrations of salt and 1,6-hexanediol” value is listed as “not significantly suppressed”.

Consider “RRRVVQRRRRGSGSDDDASQEDDD [DPp53N-GSGS-DPp53C1]”, for which the “Enrichment index (EI) of p53 monomer (L344P) mutant in peptide droplets” value in data set [2] (0.9–1.8 mM designed peptide, 0.1 µM Alexa488-labeled p53, 25 mM HEPES, 0.5 mM EDTA, 1 mM DTT, pH 7.0, 22 °C, ± standard error, SEM) was found to be 14.7 ± 0.5. In data set [3] (droplet interior regions, surface not included), the “Decrease of average EI of p53 tetramer relative to p53 monomer” value is listed as 2.6 fold.

GSGSDDDDDDD [GSGS-D7] displayed a fold higher affinity than the DP (p53C)1 fragment for the DP (p53N) fragment in data set [7] of 2 fold.
